Reference: patent US7504400B2, “MTP inhibiting aryl piperydines or piperazines substituted with 5-membered heterocycles” (Janssen Pharmaceutica N.V., priority 2004, dated 2009)

test system: Secretion of ApoB; experiment: Quantification of the secretion of ApoB in HepG2 cells; type: cell-based; conditions: Homo sapiens, HepG2, 24 h, 24 hours of incubation with test compound, immunoprecipitation of apoB from medium, read-out: pIC50 value (=-log IC50 value), secretion of ApoB (converted)
Protocol: HepG2 cells were cultured in 24-well plates in MEM Rega 3 containing 10% fetal calf serum. At 70% confluency, the medium was changed and the test compound or carrier (DMSO, 0.4% final concentration) was added. After 24 hours of incubation, the medium was transferred to Eppendorf tubes and cleared by centrifugation. A sheep antibody directed against either apoB was added to the supernatant and the mixture was kept at 8° C. for 24 hours. Then, rabbit anti-sheep antibody was added and the immune complex was allowed to precipitate for 24 hours at 8° C. The immunoprecipitate was pelleted by centrifugation for 25 minutes at 1320 g and washed twice with a buffer containing 40 mM Mops, 40 mM NaH2PO4, 100 mM NaF, 0.2 mM DTT, 5 mM EDTA, 5 mM EGTA, 1% Triton-X-100, 0.5% sodium deoxycholate (DOC), 0.1% SDS, 0.2 μM leupeptin and 0.2 μM PMSF. Radioactivity in the pellet was quantified by liquid scintillation-counting. The IC50 values are usually converted to pIC50 values (=−log IC50 value) for ease of use.

IC50 [nM] | Compound
31.6 to 316 | CCC(C)n1ncn(-c2ccc(N3CCN(C(C(=O)Nc4ccccc4)c4ccccc4)CC3)cc2)c1=O (stereo not shown) [Compound 23]
31.6 to 316 | O=C(NCc1ccccc1)C(c1ccccc1)C1CCN(c2ccc(-n3cnn(C/C=C/c4ccccc4)c3=O)cc2)CC1 (stereo not shown) [Compound 183]
316 to 3160 | COC(=O)CC1CCN(c2ccc(-n3ccn(C(C)c4ccccc4)c3=O)cc2)CC1 (stereo not shown) [Compound 264]
31.6 to 316 | CC(C)n1ncn(-c2ccc(N3CCC(C(C(=O)NCc4ccccc4)c4ccccc4)CC3)cc2)c1=O (stereo not shown) [Compound 168]
316 to 3160 | CCOC(=O)C(c1ccccc1)C1CCN(c2ccc(-n3ccn([C@@H](C)c4ccc5ccccc5c4)c3=O)cc2)CC1 (stereo partly shown) [Compound 251]
31.6 to 316 | CCOC(=O)[C@H](c1ccccc1)N1CCN(c2ccc(-n3ccn(C(C)c4ccc(F)c(F)c4)c3=O)cc2)CC1 (stereo in doubt) [Compound 341]
31.6 to 316 | CC(C)n1ncn(-c2ccc(N3CCN(CC(C(=O)NCC(F)(F)F)c4ccccc4)CC3)cc2)c1=O (stereo not shown) [Compound 98]
31.6 to 316 | CCC(C)n1ncn(-c2ccc(N3CCN(C(C(=O)NCCC#N)c4ccccc4)CC3)cc2)c1=O (stereo not shown) [Compound 110]
31.6 to 316 | CCOC(=O)[C@H](c1ccccc1)N1CCN(c2ccc(-n3ccn(C(C)c4cc(F)cc(F)c4)c3=O)cc2)CC1 (stereo in doubt) [Compound 342]
31.6 to 316 | CCNC(=O)C(c1ccccc1)N1CCN(c2ccc(-n3cnn(C(C)C)c3=O)cc2)CC1 (stereo not shown) [Compound 163]
316 to 3160 | CCOC(=O)C(c1ccccc1)N1CCC(c2ccc(-n3ccn([C@@H](C)c4ccccc4F)c3=O)cc2)CC1 (stereo partly shown) [Compound 279]
316 to 3160 | CCOC(=O)C(c1ccccc1)N1CCN(c2ccc(-n3ccn(C(C)C)c3=O)cc2)CC1 (stereo not shown) [Compound 189]
316 to 3160 | CC(C)n1cnn(-c2ccc(N3CCN(C(C(=O)NCc4ccccn4)c4ccccc4)CC3)cc2)c1=O (stereo not shown) [Compound 121]
31.6 to 316 | CCOC(=O)[C@@H](c1ccccc1)N1CCN(c2ccc(-n3cnn([C@@H](C)c4ccccc4)c3=O)cc2)CC1 (relative stereo) [Compound 281]
31.6 to 316 | CCCCn1ncn(-c2ccc(N3CCC(C(C(=O)NCCC)c4ccccc4)CC3)cc2)c1=O (stereo not shown) [Compound 150]
31.6 to 316 | COC(=O)c1ccc(CNC(=O)C(c2ccccc2)N2CCC(c3ccc(-n4cnn(C(C)C)c4=O)cc3)CC2)cc1 (stereo not shown) [Compound 295]
316 to 3160 | Cc1cccc(NC(=O)C(c2ccccc2)N2CCN(c3ccc(-n4cnn(C(C)C)c4=O)cc3)CC2)n1 (stereo not shown) [Compound 12]
316 to 3160 | CCCCCn1ncn(-c2ccc(N3CCC(C(C(=O)NC(C)C)c4ccccc4)CC3)cc2)c1=O (stereo not shown) [Compound 89]
316 to 3160 | CC(C)n1ncn(-c2ccc(N3CCN(C(C(=O)NCCc4ccccn4)c4ccccc4)CC3)cc2)c1=O (stereo not shown) [Compound 72]
316 to 3160 | COC(=O)C(c1ccccc1)N1CCN(c2ccc(-n3cnn(C(C)C)c3=O)cn2)CC1 (stereo not shown) [Compound 146]
316 to 3160 | CC(C)n1ncn(-c2ccc(N3CCN(C(C(=O)NCc4c(F)cccc4F)c4ccccc4)CC3)cc2)c1=O (stereo not shown) [Compound 79]
31.6 to 316 | COc1ccc(NC(=O)C(c2ccccc2)N2CCN(c3ccc(-n4cnn(C(C)C)c4=O)cc3)CC2)c(OC)c1 (stereo not shown) [Compound 184]

IC50 [nM] | Compound
316 to 3160 | CC(C)n1ncn(-c2ccc(N3CCC(CC(=O)Nc4ccc5c(c4)CCC5)CC3)cc2)c1=O [Compound 213]
316 to 3160 | CCOC(=O)c1ccc(CNC(=O)C(Cc2ccccc2)C2CCN(c3ccc(-n4cnn(C(C)c5ccccc5)c4=O)cc3)CC2)cc1C (stereo not shown) [Compound 379]
316 to 3160 | CCOC(=O)C(c1ccccc1)C1CCN(c2ccc(-n3ccn([C@@H](C)c4ccc(Cl)cc4)c3=O)cc2)CC1 (stereo partly shown) [Compound 256]
31.6 to 316 | CCOC(=O)C(c1ccccc1)C1CCN(c2ccc(-n3ccn([C@H](C)c4ccc(Br)cc4)c3=O)cc2)CC1 (stereo partly shown) [Compound 249]
316 to 3160 | CCOC(=O)c1csc(NC(=O)C(c2ccccc2)N2CCN(c3ccc(-n4cnn(C(C)C)c4=O)cc3)CC2)n1 (stereo not shown) [Compound 357]
316 to 3160 | CC(C)n1ncn(-c2ccc(N3CCN(C(C(=O)NCc4nc5ccccc5[nH]4)c4ccccc4)CC3)cc2)c1=O (stereo not shown) [Compound 127]
316 to 3160 | CC(C)NC(=O)C(c1ccccc1)C1CCN(c2ccc(-n3cnn(C/C=C/c4ccccc4)c3=O)cc2)CC1 (stereo not shown) [Compound 92]
< 31.6 | Cc1cc(N2CCN(C(C(=O)Nc3ccc4c(c3)CCC4)c3ccccc3)CC2)ccc1N1CCN(C(C)C)C1=O (stereo not shown) [Compound 220]
316 to 3160 | CC(C)n1ncn(-c2ccc(N3CCN(C(C(=O)NCc4ccccc4)c4ccccc4)CC3)cc2)c1=O (stereo not shown) [Compound 165]
< 31.6 | COC(=O)c1ccc(NC(=O)C(c2ccccc2)N2CCC(c3ccc(-n4cnn(C(C)C)c4=O)cc3)CC2)cc1C (stereo not shown) [Compound 285]
31.6 to 316 | CCOC(=O)C(c1ccccc1)N1CCN(c2ccc(-n3ccn(C(C)c4cc(F)ccc4F)c3=O)cc2)CC1 (stereo not shown) [Compound 334]
31.6 to 316 | CCOC(=O)c1cc(NC(=O)CC2CCN(c3ccc(-n4cnn(C(C)c5ccccc5)c4=O)cc3)CC2)ccc1C (stereo not shown) [Compound 371]
316 to 3160 | CNC(=O)C(c1ccccc1)N1CCN(c2ccc(-n3cnn(C(C)C)c3=O)cn2)CC1 (stereo not shown) [Compound 18]
316 to 3160 | CCOC(=O)C(c1ccccc1)N1CCC(c2ccc(-n3ccn([C@@H](C)c4ccccc4)c3=O)cc2)CC1 (stereo partly shown) [Compound 228]
31.6 to 316 | COc1ccc(CNC(=O)C(c2ccccc2)N2CCN(c3ccc(-n4cnn(C(C)C)c4=O)cc3)CC2)c(OC)c1 (stereo not shown) [Compound 97]
31.6 to 316 | CCCNC(=O)C(c1ccccc1)C1CCN(c2ccc(-n3cnn(CC4CC4)c3=O)cc2)CC1 (stereo not shown) [Compound 154]
316 to 3160 | CCOC(=O)CC(NC(=O)CC1CCN(c2ccc(-n3cnn(C(C)c4ccccc4)c3=O)cc2)CC1)c1ccc2c(c1)OCO2 (stereo not shown) [Compound 404]
31.6 to 316 | CC(C)n1ncn(-c2ccc(N3CCN(C(C(=O)Nc4ccc(F)cc4F)c4ccccc4)CC3)cc2)c1=O (stereo not shown) [Compound 62]
31.6 to 316 | CC(C)n1ncn(-c2ccc(N3CCN(C(C(=O)NCc4cccc(C(F)(F)F)c4)c4ccccc4)CC3)cc2)c1=O (stereo not shown) [Compound 77]
< 31.6 | CC(C)n1ncn(-c2ccc(N3CCN(C(C(=O)Nc4ccc5c(c4)CCC5)c4ccccc4)CC3)cc2)c1=O (stereo not shown) [Compound 11]
31.6 to 316 | COC(=O)c1cccc(NC(=O)C(c2ccccc2)N2CCN(c3ccc(-n4cnn(C(C)C)c4=O)cc3)CC2)c1 (stereo not shown) [Compound 192]
316 to 3160 | COC(=O)C(c1ccccc1)N1CCN(c2ccc(-n3nc(C)n(C(C)C)c3=O)cc2)CC1 (stereo not shown) [Compound 159]

IC50 [nM] | Compound
316 to 3160 | CC(C)n1ncn(-c2ccc(N3CCN(C(C(N)=O)c4ccccc4)CC3)cc2)c1=O (stereo not shown) [Compound 145]
316 to 3160 | CCOC(=O)C(c1ccccc1)N1CCN(c2ccc(-n3cnn(C(C)c4ccc(F)cc4)c3=O)cc2)CC1 (stereo not shown) [Compound 266]
31.6 to 316 | CCOC(=O)C(c1ccccc1)N1CCC(c2ccc(-n3ccn([C@H](C)c4cccc5ccccc45)c3=O)cc2)CC1 (stereo partly shown) [Compound 225]
316 to 3160 | CCCNC(=O)C(c1ccccc1)N1CCN(c2ccc(-n3cnn(C(C)C)c3=O)cn2)CC1 (stereo not shown) [Compound 47]
< 31.6 | CC(C)n1ccn(-c2ccc(N3CCN(C(C(=O)Nc4ccc5c(c4)CCC5)c4ccccc4)CC3)cc2)c1=O (stereo not shown) [Compound 205]
31.6 to 316 | CCOC(=O)c1ccc(CNC(=O)CC2CCN(c3ccc(-n4cnn(C(C)c5ccccc5)c4=O)cc3)CC2)cc1C (stereo not shown) [Compound 377]
31.6 to 316 | CCOC(=O)[C@H](NC(=O)CC1CCN(c2ccc(-n3cnn(C(C)c4ccccc4)c3=O)cc2)CC1)c1ccccc1 (stereo partly shown) [Compound 394]
31.6 to 316 | CCCCCn1ncn(-c2ccc(N3CCC(C(C(=O)NCc4ccccc4)c4ccccc4)CC3)cc2)c1=O (stereo not shown) [Compound 157]
31.6 to 316 | CCNC(=O)C(c1ccccc1)N1CCN(c2ccc(-n3ncn(C(C)C)c3=O)cc2)CC1 (stereo not shown) [Compound 113]
316 to 3160 | COC(=O)C(c1ccccc1)N1CCN(c2ccc(-n3nc(-c4ccccc4)n(C(C)C)c3=O)cc2)CC1 (stereo not shown) [Compound 34]
31.6 to 316 | CCOC(=O)[C@H](c1ccccc1)N1CCN(c2ccc(-n3ccn([C@H](C)c4ccc(F)cc4)c3=O)cc2)CC1 (relative stereo) [Compound 268]
31.6 to 316 | CCOC(=O)C(c1ccccc1)N1CCC(c2ccc(-n3ccn(C(CC)c4ccccc4)c3=O)cc2)CC1 (stereo not shown) [Compound 242]
316 to 3160 | CCOC(=O)C(c1ccccc1)N1CCC(c2ccc(-n3ccn([C@@H](C)c4cccc(OC)c4)c3=O)cc2)CC1 (stereo partly shown) [Compound 238]
31.6 to 316 | CC(C)NC(=O)C(c1ccccc1)N1CCN(c2ccc(-n3cnn(C(C)C)c3=O)cc2)CC1 (stereo not shown) [Compound 7]
31.6 to 316 | CCOC(=O)[C@@H](c1ccccc1)N1CCN(c2ccc(-n3cnn([C@@H](C)c4ccc(F)cc4)c3=O)cc2)CC1 (relative stereo) [Compound 299]
316 to 3160 | CCOC(=O)c1ccc(CNC(=O)C(Cc2ccccc2)C2CCN(c3ccc(-n4cnn(C(C)C)c4=O)cc3)CC2)cc1C (stereo not shown) [Compound 380]
316 to 3160 | CCOC(=O)C(c1cccs1)N1CCN(c2ccc(-n3cnn(C(C)C)c3=O)cc2)CC1 (stereo not shown) [Compound 13]
316 to 3160 | CC(C)CNC(=O)C(c1ccccc1)N1CCN(c2ccc(-n3cnn(C(C)C)c3=O)cn2)CC1 (stereo not shown) [Compound 43]
316 to 3160 | CC(C)n1ncn(-c2ccc(N3CCN(C(C(=O)Nc4ccccc4)c4ccccc4)CC3)nc2)c1=O (stereo not shown) [Compound 37]
316 to 3160 | COC(=O)C(c1ccccc1)N1CCN(c2ccc(-n3ncn(C(C)C)c3=O)cc2)CC1 (stereo not shown) [Compound 36]
